Our source for the Ki values is ChEMBL document CHEMBL1149486, “Carbonic anhydrase inhibitors: Hypoxia-activatable sulfonamides incorporating disulfide bonds that target the tumor-associated isoform IX” (J Med Chem, 2006).

The target of this test is Carbonic anhydrase 9 (Homo sapiens, UniProt Q16790).
Broadly, the Ki is a measure of affinity in units of concentration, obtained from inhibition or displacement. Lower therefore signals higher affinity. As to `NS(=O)(=O)c1nnc(NC(=O)CCS)s1`, the affinity, expressed as Ki, was 3.6 nM. Under `NS(=O)(=O)c1ccc(CCNC(=O)CCSSCCC(=O)NCCc2ccc(S(N)(=O)=O)cc2)cc1` stands 71 nM. Under `Cn1nc(S(N)(=O)=O)s/c1=N/C(=O)CCSSCCC(=O)/N=c1/sc(S(N)(=O)=O)nn1C` stands 9.3 nM.
